Values of other authors in patent US12611397B1, “Pharmaceutical composition of darolutamide” (ORION CORPORATION, priority 2019, dated 2026).

- Solubility in water: poorly soluble in water
Compound: CC(O)c1cc(C(=O)N[C@@H](C)Cn2ccc(-c3ccc(C#N)c(Cl)c3)n2)[nH]n1 (stereo partly drawn) [Darolutamide, N—((S)-1-(3-(3-chloro-4-cyanophenyl)-1H-pyrazol-1-yl)-propan-2-yl)-5-(1-hydroxyethyl)-1H-pyrazole-3-carboxamide]
